One experiment has as its target rat TAAR1 (Rattus norvegicus (Rat), UniProt Q923Y9). Briefly: Radioligand binding assay on rat TAAR1. The settings on record: rat TAAR1 (second value of the cell), HEK-293 membranes; read-out: Ki (μM) mouse/rat. In short, it runs like this:
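Membranes from HEK293 cells stably expressing rat TAAR1 were used, with radioligand Kd determined by saturation for each batch. Compounds (10 pM to 10 μM, in duplicate) were incubated for 1 h at 4 °C. Bound radioactivity was collected by filtration onto PEI-soaked GF/C filters and counted by scintillation.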

In another experiment the target is mouse TAAR1 (Mus musculus (Mouse), UniProt Q923Y8). As to the kind of experiment: Radioligand binding assay on mouse TAAR1. The settings on record: mouse TAAR1 (first value of the cell), HEK-293 membranes; read-out: Ki (μM) mouse/rat. In short, it runs like this:
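Membranes from HEK293 cells stably expressing mouse TAAR1, Kd of radioligand determined per batch by saturation. Compounds tested 10 pM to 10 μM in duplicate, incubated 1 h at 4 °C, then filtration over PEI-soaked GF/C filters and scintillation counting.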

SMILES strings stand for the structures.

Sequence of rat TAAR1 (Q923Y9 whole entry): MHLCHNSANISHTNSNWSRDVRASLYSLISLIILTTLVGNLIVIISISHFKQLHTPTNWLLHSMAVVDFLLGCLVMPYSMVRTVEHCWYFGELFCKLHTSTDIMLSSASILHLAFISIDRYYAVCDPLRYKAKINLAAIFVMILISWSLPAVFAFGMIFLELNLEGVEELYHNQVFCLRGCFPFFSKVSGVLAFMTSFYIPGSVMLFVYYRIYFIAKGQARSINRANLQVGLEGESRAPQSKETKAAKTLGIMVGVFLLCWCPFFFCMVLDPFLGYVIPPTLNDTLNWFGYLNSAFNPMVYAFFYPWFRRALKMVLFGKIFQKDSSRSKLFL
Sequence of mouse TAAR1 (Q923Y8 whole entry): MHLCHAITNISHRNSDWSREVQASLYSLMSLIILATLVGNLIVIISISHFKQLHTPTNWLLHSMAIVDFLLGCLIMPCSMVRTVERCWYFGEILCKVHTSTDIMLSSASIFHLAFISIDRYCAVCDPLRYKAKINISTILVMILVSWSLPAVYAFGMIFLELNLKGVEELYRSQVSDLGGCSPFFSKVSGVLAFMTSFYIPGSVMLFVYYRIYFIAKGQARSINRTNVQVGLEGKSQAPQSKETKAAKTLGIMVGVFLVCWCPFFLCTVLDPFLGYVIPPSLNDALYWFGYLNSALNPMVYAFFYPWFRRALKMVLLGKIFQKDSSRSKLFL

With `FC(F)(F)c1cccnc1Nc1ccc([C@H]2CNCCO2)cc1` [Example 41, (S)—N-(4-(Morpholin-2-yl)phenyl)-3-(trifluoromethyl)pyridin-2-amine], the Ki on rat TAAR1 stood at 1.08 µM; on mouse TAAR1 it was 0.27 µM.
In the same order, the values of `c1cc([C@H]2CNCCO2)ccc1Nc1ncc(C2CC2)cn1` [Example 17, (5-Cyclopropyl-pyrimidin-2-yl)-((S)-4-morpholin-2-yl-phenyl)-amine] are 0.0131 µM and 0.0017 µM.
In the case of `COc1ccc(CNc2ccc([C@H]3CNCCO3)cc2)cc1` [Example 20, (4-Methoxy-benzyl)-((S)-4-morpholin-2-yl-phenyl)-amine], the Ki at rat TAAR1 is 0.764 µM; at mouse TAAR1, 0.0453 µM.
In the same order, the values of `Clc1ccc(CNc2ccc([C@H]3CNCCO3)cc2)cn1` [Example 32, (S)—N-((6-Chloropyridin-3-yl)methyl)-4-(morpholin-2-yl)aniline] are 1.24 µM and 0.0357 µM.
In the same order, the values of `CC(C)Oc1cnc(Nc2ccc([C@@H]3CNCCO3)cc2)nc1` [Example 123, (5-Isopropoxy-pyrimidin-2-yl)-((R)-4-morpholin-2-yl-phenyl)-amine] are 0.0796 µM and 0.0174 µM.
Take `N#Cc1cnc(Nc2ccc([C@H]3CNCCO3)cc2)nc1` [Example 16, 2-((S)-4-Morpholin-2-yl-phenylamino)-pyrimidine-5-carbonitrile]: the Ki on rat TAAR1 amounted to 0.448 µM; on mouse TAAR1 it was 0.0276 µM.
For the compound `Brc1cnc(Nc2ccc([C@H]3CNCCO3)cc2)c(Br)c1` [Example 61, (S)-3,5-Dibromo-N-(4-(morpholin-2-yl)phenyl)pyridin-2-amine], the Ki at rat TAAR1 was 0.502 µM; at mouse TAAR1 it was 0.0591 µM.
In the same order, the values of `CCCc1cnc(Nc2ccc([C@H]3CNCCO3)cc2F)nc1` [Example 129, ((S)-2-Fluoro-4-morpholin-2-yl-phenyl)-(5-propyl-pyrimidin-2-yl)-amine] are 0.0068 µM and 0.0043 µM.
In the same order, the values of `c1cc([C@H]2CNCCO2)ccc1Nc1ccc(C2COC2)cn1` [Example 165, ((S)-4-Morpholin-2-yl-phenyl)-(5-oxetan-3-yl-pyridin-2-yl)-amine] are 0.34 µM and 0.011 µM.
In the same order, the values of `Fc1cc(Nc2ncc(C3CC3)cn2)ccc1[C@@H]1CNCCO1` [Example 192, (R)-5-Cyclopropyl-N-(3-fluoro-4-(morpholin-2-yl)phenyl)pyrimidin-2-amine] are 0.0026 µM and 0.0025 µM.
Consider `FC(F)(F)COc1cnc(Nc2ccc([C@@H]3CNCCO3)cc2)nc1` [Example 137, ((R)-4-Morpholin-2-yl-phenyl)-[5-(2,2,2-trifluoro-ethoxy)-pyrimidin-2-yl]-amine], for which the Ki at rat TAAR1 was found to be 0.0026 µM; at mouse TAAR1 it was 0.0037 µM.
In the same order, the values of `FC(F)(F)c1cnc(Nc2ccc([C@@H]3CNCCO3)c(Cl)c2)nc1` [Example 204, ((R)-3-Chloro-4-morpholin-2-yl-phenyl)-(5-trifluoromethyl-pyrimidin-2-yl)-amine] are 0.0021 µM and 0.0038 µM.
With `CCc1cnc(Nc2ccc([C@@H]3CNCCO3)cc2)nc1` [Example 68, (R)-5-Ethyl-N-(4-(morpholin-2-yl)phenyl)pyrimidin-2-amine], the figures for the Ki on rat TAAR1 and on mouse TAAR1 were 0.0751 µM and 0.0094 µM, respectively.
In the same order, the values of `Cc1cc(C2CNCCO2)ccc1Nc1ccc(Cl)cn1` (racemic) [Example 80, (RS)-(5-Chloro-pyridin-2-yl)-(2-methyl-4-morpholin-2-yl-phenyl)-amine] are 0.0626 µM and 0.0026 µM.
In the same order, the values of `Fc1cc(Nc2nccc(OCC(F)(F)F)n2)ccc1[C@@H]1CNCCO1` [Example 208, (R)—N-(3-Fluoro-4-(morpholin-2-yl)phenyl)-4-(2,2,2-trifluoroethoxy)pyrimidin-2-amine] are 0.0035 µM and 0.003 µM.
Turning to `Clc1cc(Nc2ccc([C@H]3CNCCO3)cc2)nc2ccccc12` [Example 54, (S)-4-Chloro-N-(4-(morpholin-2-yl)phenyl)quinolin-2-amine], the Ki at rat TAAR1 amounted to 0.0138 µM; on mouse TAAR1, 0.0008 µM.
As to `Cc1cc(C2CNCCO2)ccc1Nc1ncc(Cl)cn1` (racemic) [Example 81, (RS)-(5-Chloro-pyrimidin-2-yl)-(2-methyl-4-morpholin-2-yl-phenyl)-amine], the values for the Ki on rat TAAR1 and at mouse TAAR1 were 0.203 µM and 0.0162 µM, respectively.
Turning to `Clc1cc(Nc2ccc([C@H]3CNCCO3)cc2)c(Cl)cn1` [Example 63, (S)-2,5-Dichloro-N-(4-(morpholin-2-yl)phenyl)pyridin-4-amine], the Ki was 1.49 µM at rat TAAR1 and 0.373 µM on mouse TAAR1.
In the same order, the values of `FC(F)(F)COc1ccnc(Nc2ccc([C@@H]3CNCCO3)cc2)n1` [Example 172, ((R)-4-Morpholin-2-yl-phenyl)-[4-(2,2,2-trifluoro-ethoxy)-pyrimidin-2-yl]-amine] are 0.0162 µM and 0.0035 µM.
For the compound `COc1ccc(-c2cnc(Nc3ccc([C@H]4CNCCO4)cc3)nc2)cc1OC` [Example 141], the Ki turned out to be 0.0129 µM at rat TAAR1 and 0.0027 µM on mouse TAAR1.
Turning to `Fc1ncccc1Nc1ccc([C@H]2CNCCO2)cc1` [Example 55, (2-Fluoro-pyridin-3-yl)-((S)-4-morpholin-2-yl-phenyl)-amine], the Ki at rat TAAR1 stood at 1.98 µM; at mouse TAAR1, 0.738 µM.
In the same order, the values of `c1cc(C2CNCCO2)ccc1Nc1ccn(CC2CC2)n1` (racemic) [Example 146, (RS)-(1-Cyclopropylmethyl-1H-pyrazol-3-yl)-(4-morpholin-2-yl-phenyl)-amine] are 0.14 µM and 0.0046 µM.
In the same order, the values of `CCOc1cnc(Nc2ccc([C@H]3CNCCO3)cc2)nc1` [Example 29, (5-Ethoxy-pyrimidin-2-yl)-((S)-4-morpholin-2-yl-phenyl)-amine] are 0.155 µM and 0.0042 µM.
In the same order, the values of `FC(F)Oc1cnc(Nc2ccc([C@@H]3CNCCO3)cc2)nc1` [Example 179, (R)-5-(Difluoromethoxy)-N-(4-(morpholin-2-yl)phenyl)pyrimidin-2-amine] are 0.0517 µM and 0.0047 µM.
With `Clc1cnc(Nc2ccc([C@@H]3CNCCO3)cc2)nc1` [Example 103, (R)-5-Chloro-N-(4-(morpholin-2-yl)phenyl)pyrimidin-2-amine], the Ki on rat TAAR1 was 0.05 µM; at mouse TAAR1, 0.0044 µM.
`Cc1cc([C@H]2CNCCO2)ccc1Nc1ncc(C(F)(F)F)cn1` [Example 167, ((S)-2-Methyl-4-morpholin-2-yl-phenyl)-(5-trifluoromethyl-pyrimidin-2-yl)-amine]: the Ki was determined as 1.35 µM at rat TAAR1 and 0.112 µM on mouse TAAR1.
Consider `FC(F)(F)COc1cnc(Nc2ccc([C@H]3CNCCO3)cc2)nc1` [Example 136, ((S)-4-Morpholin-2-yl-phenyl)-[5-(2,2,2-trifluoro-ethoxy)-pyrimidin-2-yl]-amine], for which the figures for the Ki on rat TAAR1 and on mouse TAAR1 were 0.0494 µM and 0.0051 µM, respectively.
For the compound `Cc1cnc(Nc2ccc([C@@H]3CNCCO3)cc2)cn1` [Example 157, (5-Methyl-pyrazin-2-yl)-((R)-4-morpholin-2-yl-phenyl)-amine], the Ki on rat TAAR1 is above 10 µM; on mouse TAAR1 it was 0.0132 µM.
As for `CCc1cnc(Nc2ccc([C@H]3CNCCO3)cc2F)nc1` [Example 117, (5-Ethyl-pyrimidin-2-yl)-((S)-2-fluoro-4-morpholin-2-yl-phenyl)-amine], the Ki on rat TAAR1 was found to be 0.0104 µM; on mouse TAAR1 it was 0.0034 µM.
Turning to `Cc1ccc(CNc2ccc([C@H]3CNCCO3)cc2)cc1` [Example 22, (4-Methyl-benzyl)-((S)-4-morpholin-2-yl-phenyl)-amine], the Ki is 0.468 µM on rat TAAR1 and 0.0375 µM on mouse TAAR1.
In the same order, the values of `Fc1cc([C@H]2CNCCO2)ccc1Nc1ncc(OCC(F)(F)F)cn1` [Example 145, ((S)-2-Fluoro-4-morpholin-2-yl-phenyl)-[5-(2,2,2-trifluoro-ethoxy)-pyrimidin-2-yl]-amine] are 0.0067 µM and 0.0034 µM.
In the same order, the values of `CS(=O)(=O)c1cnc(Nc2ccc([C@H]3CNCCO3)cc2)nc1` [Example 78, (5-Methanesulfonyl-pyrimidin-2-yl)-((S)-4-morpholin-2-yl-phenyl)-amine] are 3.19 µM and 0.11 µM.
Regarding `COc1cc(Cl)nc(Nc2ccc([C@@H]3CNCCO3)cc2)n1` [Example 180, (4-Chloro-6-methoxy-pyrimidin-2-yl)-((R)-4-morpholin-2-yl-phenyl)-amine], the Ki on rat TAAR1 came out at 0.033 µM; on mouse TAAR1, 0.0058 µM.
In the same order, the values of `c1cc([C@H]2CNCCO2)ccc1Nc1ncc2c(n1)CCCC2` [Example 74, ((S)-4-Morpholin-2-yl-phenyl)-(5,6,7,8-tetrahydro-quinazolin-2-yl)-amine] are 0.0295 µM and 0.0059 µM.
In the same order, the values of `Fc1cnc(Nc2ccc([C@@H]3CNCCO3)cc2)nc1C1CC1` [Example 190, (4-Cyclopropyl-5-fluoro-pyrimidin-2-yl)-((R)-4-morpholin-2-yl-phenyl)-amine] are 0.0422 µM and 0.0031 µM.
As for `CCCc1cnc(Nc2ccc([C@@H]3CNCCO3)cc2F)nc1` [Example 128, ((R)-2-Fluoro-4-morpholin-2-yl-phenyl)-(5-propyl-pyrimidin-2-yl)-amine], the figures for the Ki at rat TAAR1 and on mouse TAAR1 were 0.0039 µM and 0.0049 µM, respectively.
In the same order, the values of `CC(C)Oc1cnc(Nc2ccc([C@H]3CNCCO3)cc2)nc1` [Example 122, (5-Isopropoxy-pyrimidin-2-yl)-((S)-4-morpholin-2-yl-phenyl)-amine] are 0.0847 µM and 0.0079 µM.
In the same order, the values of `COCCOc1cnc(Nc2ccc([C@H]3CNCCO3)cc2)nc1` [Example 138] are 1.36 µM and 0.0641 µM.

For the origin of these results see patent US8802673B2, “Heterocyclic amine derivatives” (Hoffmann-La Roche Inc, priority 2011, dated 2014).
